# Earlier results in patent US12454515B2, “2-aminoindane compounds for mental disorders or enhancement” (Tactogen Inc, priority 2020, dated 2025).
# Tested on: neuritogenesis
# Conditions: literature value
compound,measurement,setting,value
CNC(C)Cc1ccc2c(c1)OCO2 (centres unmarked) [MDMA],EC50,"Ly et al. Cell reports 23 (2018) Figure S3, read-out: EC50 for promoting neuritogenesis",7.41 nM
same,Emax for promoting neuritogenesis,"relative to ketamine, Ly et al. 2018",approximately twice that of ketamine
